Reference: the supplement of paper PMC10307832

Tests used:
Assay in all cases: relative viability (nuclei count vs DMSO), 5 days (fraction); higher = more cells survive
[1] = compound: C1=CC=C(C(=C1)C2=CC=C(C=C2)C3=CSC4=C3C(=C(C(=O)N4)C#N)O)O + CCNC(=O)c1noc(-c2cc(C(C)C)c(O)cc2O)c1-c1ccc(CN2CCOCC2)cc1 [Luminespib] (partner 0.01 µM)
How it was run: (§1)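 Relative viability is defined as nuclei in treated wells over nuclei in vehicle wells. Duplicate plates were run and medians reported. Lung cancer cell lines in 1536-well plates were dosed by pin tool one day after seeding, with one drug or with a fixed anchor-drug dose plus five library-drug doses (not always all listed) in √10 steps, and nuclei were counted after 5 days.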

[2] = compound: C1=CC=C(C(=C1)C2=CC=C(C=C2)C3=CSC4=C3C(=C(C(=O)N4)C#N)O)O + C[C@@H](Oc1cc(-c2cnn(C3CCNCC3)c2)cnc1N)c1c(Cl)ccc(F)c1Cl [Crizotinib] (partner 1 µM)
How it was run: as §1

[3] = compound: CC1=CN2C(=O)C=C(N=C2C(=C1)C(C)NC3=CC=CC=C3)N4CCOCC4 [TGX 221] + COc1cccc2cc(-c3nc([C@H]4CC[C@H](C(=O)O)CC4)n4ncnc(N)c34)[nH]c12 [OSI-027] (partner 0.5 µM)
How it was run: as §1

[4] = compound: O=C(CCCCCCNC(=O)c1cnc(N(c2ccccc2)c2ccccc2)nc1)NO [Ricolinostat] + O=C(CCCCCCC(=O)Nc1ccccc1)NO [Vorinostat] (partner 1 µM)
How it was run: as §1

## NCI-H1651
[1]; first compound 0.08 µM
  relative viability: 0.77
[1]; first compound 0.253 µM
  relative viability: 0.818
[1]; first compound 0.8 µM
  relative viability: 0.971
[1]; first compound 2.53 µM
  relative viability: 0.974
[1]; first compound 8 µM
  relative viability: 0.546
[2]; first compound 0.08 µM
  relative viability: 0.878
[2]; first compound 0.253 µM
  relative viability: 0.823
[2]; first compound 0.8 µM
  relative viability: 0.851
[2]; first compound 2.53 µM
  relative viability: 0.878
[2]; first compound 8 µM
  relative viability: 0.826
[3]; first compound 0.08 µM
  relative viability: 0.555
[3]; first compound 0.253 µM
  relative viability: 0.632
[3]; first compound 0.8 µM
  relative viability: 0.63
[3]; first compound 2.53 µM
  relative viability: 0.59
[3]; first compound 8 µM
  relative viability: 0.586
[4]; first compound 0.08 µM
  relative viability: 0.459
[4]; first compound 0.253 µM
  relative viability: 0.594
[4]; first compound 0.8 µM
  relative viability: 0.411
[4]; first compound 2.53 µM
  relative viability: 0.395

## HCC-827
[1]; first compound 0.08 µM
  relative viability: 0.639
[1]; first compound 0.253 µM
  relative viability: 0.845
[1]; first compound 0.8 µM
  relative viability: 0.573
[1]; first compound 2.53 µM
  relative viability: 0.7
[1]; first compound 8 µM
  relative viability: 0.43
[2]; first compound 0.08 µM
  relative viability: 1.02
[2]; first compound 0.253 µM
  relative viability: 0.959
[2]; first compound 0.8 µM
  relative viability: 0.965
[2]; first compound 2.53 µM
  relative viability: 1.03
[2]; first compound 8 µM
  relative viability: 0.926
[3]; first compound 0.08 µM
  relative viability: 0.735
[3]; first compound 0.253 µM
  relative viability: 0.761
[3]; first compound 0.8 µM
  relative viability: 0.799
[3]; first compound 2.53 µM
  relative viability: 0.727
[3]; first compound 8 µM
  relative viability: 0.78
[4]; first compound 0.08 µM
  relative viability: 0.768
[4]; first compound 0.253 µM
  relative viability: 0.86
[4]; first compound 0.8 µM
  relative viability: 0.574
[4]; first compound 2.53 µM
  relative viability: 0.915

## NCI-H2085
[1]; first compound 0.08 µM
  relative viability: 0.403
[1]; first compound 0.253 µM
  relative viability: 0.475
[1]; first compound 0.8 µM
  relative viability: 0.479
[1]; first compound 2.53 µM
  relative viability: 0.499
[1]; first compound 8 µM
  relative viability: 0.416
[2]; first compound 0.08 µM
  relative viability: 0.704
[2]; first compound 0.253 µM
  relative viability: 0.983
[2]; first compound 0.8 µM
  relative viability: 0.859
[2]; first compound 2.53 µM
  relative viability: 0.952
[2]; first compound 8 µM
  relative viability: 0.867
[3]; first compound 0.08 µM
  relative viability: 0.714
[3]; first compound 0.253 µM
  relative viability: 0.645
[3]; first compound 0.8 µM
  relative viability: 0.659
[3]; first compound 2.53 µM
  relative viability: 0.323
[3]; first compound 8 µM
  relative viability: 0.462
[4]; first compound 0.253 µM
  relative viability: 0.751
[4]; first compound 0.8 µM
  relative viability: 0.731
[4]; first compound 2.53 µM
  relative viability: 0.631

## EPLC-272H
[1]; first compound 0.08 µM
  relative viability: 0.279
[1]; first compound 0.253 µM
  relative viability: 0.282
[1]; first compound 0.8 µM
  relative viability: 0.247
[1]; first compound 2.53 µM
  relative viability: 0.223
[1]; first compound 8 µM
  relative viability: 0.282
[2]; first compound 0.253 µM
  relative viability: 1.04
[2]; first compound 0.8 µM
  relative viability: 0.839
[2]; first compound 2.53 µM
  relative viability: 0.891
[2]; first compound 8 µM
  relative viability: 0.796
[3]; first compound 0.08 µM
  relative viability: 0.273
[3]; first compound 0.253 µM
  relative viability: 0.28
[3]; first compound 0.8 µM
  relative viability: 0.244
[3]; first compound 2.53 µM
  relative viability: 0.293
[3]; first compound 8 µM
  relative viability: 0.316
[4]; first compound 0.08 µM
  relative viability: 0.343
[4]; first compound 0.253 µM
  relative viability: 0.396
[4]; first compound 0.8 µM
  relative viability: 0.313
[4]; first compound 2.53 µM
  relative viability: 0.174

## A-427
[1]; first compound 0.08 µM
  relative viability: 0.735
[1]; first compound 0.253 µM
  relative viability: 1.37
[1]; first compound 0.8 µM
  relative viability: 0.916
[1]; first compound 2.53 µM
  relative viability: 1.06
[1]; first compound 8 µM
  relative viability: 0.927
[2]; first compound 0.08 µM
  relative viability: 0.905
[2]; first compound 0.253 µM
  relative viability: 1.08
[2]; first compound 0.8 µM
  relative viability: 0.998
[2]; first compound 2.53 µM
  relative viability: 1.05
[2]; first compound 8 µM
  relative viability: 0.988
[3]; first compound 0.08 µM
  relative viability: 0.53
[3]; first compound 0.253 µM
  relative viability: 0.491
[3]; first compound 0.8 µM
  relative viability: 0.506
[3]; first compound 2.53 µM
  relative viability: 0.473
[3]; first compound 8 µM
  relative viability: 0.448
[4]; first compound 0.08 µM
  relative viability: 0.789
[4]; first compound 0.253 µM
  relative viability: 0.789
[4]; first compound 0.8 µM
  relative viability: 0.624
[4]; first compound 2.53 µM
  relative viability: 0.752

## NCI-H2228
[1]; first compound 0.08 µM
  relative viability: 0.14
[1]; first compound 0.253 µM
  relative viability: 0.163
[1]; first compound 0.8 µM
  relative viability: 0.105
[1]; first compound 2.53 µM
  relative viability: 0.135
[1]; first compound 8 µM
  relative viability: 0.186
[2]; first compound 0.08 µM
  relative viability: 0.385
[2]; first compound 0.253 µM
  relative viability: 0.505
[2]; first compound 0.8 µM
  relative viability: 0.495
[2]; first compound 2.53 µM
  relative viability: 0.33
[2]; first compound 8 µM
  relative viability: 0.392
[3]; first compound 0.08 µM
  relative viability: 0.654
[3]; first compound 0.253 µM
  relative viability: 0.522
[3]; first compound 0.8 µM
  relative viability: 0.638
[3]; first compound 2.53 µM
  relative viability: 0.453
[3]; first compound 8 µM
  relative viability: 0.463
[4]; first compound 0.08 µM
  relative viability: 0.896
[4]; first compound 0.253 µM
  relative viability: 0.647
[4]; first compound 0.8 µM
  relative viability: 0.605
[4]; first compound 2.53 µM
  relative viability: 0.64

## ABC-1
[1]; first compound 0.08 µM
  relative viability: 0.509
[1]; first compound 0.253 µM
  relative viability: 0.768
[1]; first compound 0.8 µM
  relative viability: 0.78
[1]; first compound 2.53 µM
  relative viability: 0.481
[1]; first compound 8 µM
  relative viability: 0.513
[2]; first compound 0.08 µM
  relative viability: 0.743
[2]; first compound 0.253 µM
  relative viability: 1.55
[2]; first compound 0.8 µM
  relative viability: 1.05
[2]; first compound 2.53 µM
  relative viability: 0.928
[2]; first compound 8 µM
  relative viability: 1
[3]; first compound 0.08 µM
  relative viability: 0.518
[3]; first compound 0.253 µM
  relative viability: 0.505
[3]; first compound 0.8 µM
  relative viability: 0.593
[3]; first compound 2.53 µM
  relative viability: 0.432
[3]; first compound 8 µM
  relative viability: 0.406
[4]; first compound 0.08 µM
  relative viability: 1.02
[4]; first compound 0.253 µM
  relative viability: 1.06
[4]; first compound 0.8 µM
  relative viability: 0.749
[4]; first compound 2.53 µM
  relative viability: 0.762

## EMC-BAC-2
[1]; first compound 0.08 µM
  relative viability: 0.953
[1]; first compound 0.253 µM
  relative viability: 1.25
[1]; first compound 0.8 µM
  relative viability: 1.25
[1]; first compound 2.53 µM
  relative viability: 1.26
[1]; first compound 8 µM
  relative viability: 1.18
[2]; first compound 0.08 µM
  relative viability: 0.741
[2]; first compound 0.253 µM
  relative viability: 0.824
[2]; first compound 0.8 µM
  relative viability: 0.632
[2]; first compound 2.53 µM
  relative viability: 0.821
[2]; first compound 8 µM
  relative viability: 0.644
[3]; first compound 0.08 µM
  relative viability: 0.376
[3]; first compound 0.253 µM
  relative viability: 0.443
[3]; first compound 0.8 µM
  relative viability: 0.348
[3]; first compound 2.53 µM
  relative viability: 0.359
[3]; first compound 8 µM
  relative viability: 0.366
[4]; first compound 0.08 µM
  relative viability: 0.398
[4]; first compound 0.253 µM
  relative viability: 0.417
[4]; first compound 0.8 µM
  relative viability: 0.25
[4]; first compound 2.53 µM
  relative viability: 0.293
